Source: the supplement of paper PMC13380429

Experiments:
Conditions in all cases: 72 h
[1] = tested on: Calu-3; experiment: cell viability relative to DMSO; higher = less toxic
[2] = tested on: U2OS; experiment: as above
[3] = tested on: Caco-2; experiment: as above
[4] = tested on: HepG2; experiment: as above
[5] = tested on: Vero E6; experiment: as above
[6] = tested on: Calu-3; experiment: relative viability EC50 (midpoint between 100% and the lowest measured viability); higher = less toxic
[7] = tested on: U2OS; experiment: as above
[8] = tested on: Caco-2; experiment: as above
[9] = tested on: HepG2; experiment: as above
[10] = tested on: Vero E6; experiment: as above
[11] = tested on: Calu-3; experiment: drug sensitivity score (DSS) for viability; higher = more toxic; extreme values may be limits of the assay
[12] = tested on: U2OS; experiment: as above
[13] = tested on: Caco-2; experiment: as above
[14] = tested on: HepG2; experiment: as above
[15] = tested on: Vero E6; experiment: as above

SMILES	cell viability ([1]; 1 nM) [%]	cell viability ([1]; 10 nM) [%]	cell viability ([1]; 100 nM) [%]	cell viability ([1]; 1000 nM) [%]	cell viability ([1]; 10000 nM) [%]	cell viability ([2]; 1 nM) [%]	cell viability ([2]; 10 nM) [%]	cell viability ([2]; 100 nM) [%]	cell viability ([2]; 1000 nM) [%]	cell viability ([2]; 10000 nM) [%]	cell viability ([3]; 1 nM) [%]	cell viability ([3]; 10 nM) [%]	cell viability ([3]; 100 nM) [%]	cell viability ([3]; 1000 nM) [%]	cell viability ([3]; 10000 nM) [%]	cell viability ([4]; 1 nM) [%]	cell viability ([4]; 10 nM) [%]	cell viability ([4]; 100 nM) [%]	cell viability ([4]; 1000 nM) [%]	cell viability ([4]; 10000 nM) [%]	cell viability ([5]; 1 nM) [%]	cell viability ([5]; 10 nM) [%]	cell viability ([5]; 100 nM) [%]	cell viability ([5]; 1000 nM) [%]	cell viability ([5]; 10000 nM) [%]	relative viability EC50 [6] [µM]	relative viability EC50 [7] [µM]	relative viability EC50 [8] [µM]	relative viability EC50 [9] [µM]	relative viability EC50 [10] [µM]	drug sensitivity score [11]	drug sensitivity score [12]	drug sensitivity score [13]	drug sensitivity score [14]	drug sensitivity score [15]
C[N+]1(C)CCCC(OC(=O)C(O)(c2ccccc2)c2ccccc2)C1 (stereo not given) [mepenzolate]	105	103	96.1	110	94.5	99.7	101	96.6	101	96.9	91.3	87.1	96.6	101	101	107	98.1	104	91.9	94.3	94.9	105	97.5	99.6	99.8	> 10	> 10	> 10	> 10	> 10	0	0	0	0	0
CN(C)C(=O)Oc1ccc[n+](C)c1 [mestinon]	96.5	95.1	102	93.7	94.5	104	102	106	98.6	104	91.5	95.9	107	99.8	99.1	95.1	93	101	91.2	96.3	99.8	108	102	104	93.5	> 10	> 10	> 10	> 10	> 10	0	0	0	0	0
C[N+]1(C)[C@@H]2CC[C@H]1C[C@@H](OC(=O)C(CO)c1ccccc1)C2 (stereo not given in full) [methylatropine-nitrate]	93	100	108	97.2	106	95.4	95.4	100	100	101	96.9	93.4	108	104	99.6	96.7	105	102	98.7	99.8	95.6	98.8	95.3	99.1	104	> 10	> 10	> 10	> 10	> 10	0	0	0	0	0
Cc1c(NC(=O)c2cccnc2)c(=O)n(-c2ccccc2)n1C [nifenazone]	106	106	92.3	100	106	98.3	104	102	105	101	110	98.7	93.2	97.1	89.4	105	91.9	109	94.4	90.6	105	101	99.3	101	97.2	> 10	> 10	> 10	> 10	> 10	0	0	0	0	0
O=C(O)c1cccnc1Nc1cccc(C(F)(F)F)c1 [niflumic-acid]	100	90.9	98.7	99.7	95.2	99.7	98	104	106	102	108	98.5	98.4	96.2	100	103	101	99.6	97.2	104	100	96	97.4	97.3	101	> 10	> 10	> 10	> 10	> 10	0	0	0	0	0
COC(=O)C1=C(C#N)NC(C)=C(C(=O)OC(C)C)C1c1cccc([N+](=O)[O-])c1 (stereo not given) [nilvadipine]	90.9	101	90.8	97.5	120	96.6	98.4	97	96.7	104	96.1	84.7	92.7	94.1	96	108	98.6	109	96.1	95	95.9	93.6	100	97.9	109	> 10	> 10	> 10	> 10	> 10	0	0	0	0	0
COC(=O)N[C@H](C(=O)N1CCC[C@H]1C(=O)Nc1ccc([C@@H]2CC[C@@H](c3ccc(NC(=O)[C@@H]4CCCN4C(=O)[C@@H](NC(=O)OC)C(C)C)cc3)N2c2ccc(C(C)(C)C)cc2)cc1)C(C)C [ombitasvir]	105	100	108	98.1	91.7	94.3	95.1	100	98	86.5	96	104	95.1	96.8	100	99.4	100	92.1	92.3	108	99.8	96.2	94.2	94.9	102	> 10	> 10	> 10	> 10	> 10	0	0.3	0	0	0
COC(=O)[C@H](Cc1cccc(C(=N)N)c1)[C@@H](C)NC(=O)c1ccc(-c2cc[n+]([O-])cc2)cc1 [otamixaban]	88.9	92	90.5	94.4	105	99.1	95.3	98.3	97.8	104	104	104	101	99.2	104	89.3	103	98.6	102	96.7	103	101	94.1	97.9	96.3	> 10	> 10	> 10	> 10	> 10	0	0	0	0	0
Clc1ccc(CO/N=C(\Cn2ccnc2)c2ccc(Cl)cc2Cl)c(Cl)c1 [oxiconazole]	97.5	87.3	83.4	94.8	103	100	97.3	97.6	91.1	92	106	94.8	99.8	90	83.5	97.4	103	105	98.5	89.7	99.9	105	95.4	102	95.5	> 10	> 10	> 10	> 10	> 10	0	0	1.1	0	0
C=CCOc1ccccc1OCC(O)CNC(C)C (stereo not given) [oxprenolol]	111	90.8	108	93.2	103	106	97.7	99.8	101	102	102	91.5	98	91.2	97.9	97.4	97.8	93.3	113	107	98.6	104	102	106	98.6	> 10	> 10	> 10	> 10	> 10	0	0	0	0	0
Cc1ccc(S(N)(=O)=O)cc1 [para-toluenesulfonamide]	102	94.8	91.1	91.8	95.9	100	96	97.7	102	104	103	99.2	98.1	98.9	100	105	107	110	94.4	120	102	94.6	98.4	99.2	103	> 10	> 10	> 10	> 10	> 10	0	0	0	0	0
CC1(C)S[C@@H]2[C@H](NC(=O)COc3ccccc3)C(=O)N2[C@H]1C(=O)O [penicillin-v-potassium]	91.3	97.1	101	108	94.9	101	96.4	99.8	97	98.7	97.5	95.6	94.3	92.7	90	105	105	103	94.9	97.4	104	101	104	103	96.9	> 10	> 10	> 10	> 10	> 10	0	0	0	0	0
CN1CCN(c2ccc3[nH]c(-c4ccc5[nH]c(-c6ccc(O)cc6)nc5c4)nc3c2)CC1 [pibenzimol]	108	93.8	106	116	122	103	97.2	101	100	93.8	98.6	88.8	98	100	103	101	97.4	81.2	64.1	42.7	100	100	96	98.9	98.3	> 10	> 10	> 10	0.35	> 10	0	0	0	8.8	0
